The values below come from publication PMC4835124 (Drug Design, Development and Therapy, 2016).

The term half-life denotes the time needed for the level to fall by half in the phase considered. Usually CL/F stands for clearance divided by bioavailability, as obtained after extravascular dosing. A word on the Tmax: it is the time at which the peak concentration occurs.

Where two headings read alike, the source gives them in different places.

For series [1] the following is noted: single administration in healthy volunteers; cited from earlier work.
Series [2] is described as follows: Comparative pharmacokinetic study. The following applies: for CL/F: fasting, n=35, mean ± SD; for Tmax: po.
A further series can be described thus: Food effect study. It is filed as in vivo, human. The following applies: for CL/F: Part 2, FDC_EVO5/MET1000 single oral dose, n=27, mean ± SD.
For series [3] the following is noted: multiple dosing, 5–20 mg dose range, healthy volunteers; cited from earlier work.
Setting [4] is: Part 1, EVO+MET (individual tablets) single oral dose.
[5] abbreviates: Part 1, FDC_EVO5/MET1000 single oral dose, plasma.

As for `CC(C)(C)OC[C@@H]1C(=O)NCCN1C(=O)C[C@H](N)Cc1cc(F)c(F)cc1F` [Evogliptin, evogliptin], the “effect of food on pharmacokinetics” value in series [1] is reported as “not affected by food”; in the series “Food effect study” (single oral dose of FDC_EVO5/MET1000, fed vs fasted), “did not significantly affect”. In addition, the half-life in series [1] is no less than 30 h; in series [2] (male, human, in vivo, terminal half-life, present study), greater than 24 h. Further, the CL/F in series [2] (setting [4]) worked out at 28.56 ± 8.64 L/h; in series [2] (setting [5]), 28.81 ± 9.19 L/h; in “Food effect study” (Fasted) it was 25.05 ± 6.68 L/h; in the series “Food effect study” (Fed), 23.76 ± 5.07 L/h. The time to peak (Tmax) in series [2] (male, human, in vivo) is 5 h. Also, the “intrasubject variability in CL/F” value in series [2] (present study) is listed as “around 10.0%”. For the same compound, the “dose linearity of pharmacokinetics” value in series [3] was “linear pharmacokinetics”.

As for `CN(C)C(=N)N=C(N)N` [Metformin, metformin], the CL/F in series [2] (setting [4]) stood at 126.15 ± 35.21 L/h; in series [2] (setting [5]), 126.82 ± 38.28 L/h; in the series “Food effect study” (Fasted) it was 112.95 ± 28.61 L/h; in the series “Food effect study” (Fed), 78.76 ± 20.56 L/h. Besides, the Tmax in series [2] (male, human, in vivo) was found to be 4 h. For the same compound, the “increase of AUClast under the fed condition compared to the fasted condition” value in the series “Food effect study” (FDC_EVO5/MET1000 single oral dose) was 36%–60%.
